This note sets out measurements from patent publication US20180016596A1, “NUCLEIC ACID CONSTRUCTS, PLANTS COMPRISING SAME AND USES THEREOF IN ENHANCING PLANT PEST RESISTANCE AND ALTERING PLANT MONOTERPENE PROFILE” (Futuragene Israel Ltd., priority 2014, published 2018).

This assay deals with Ophelimus maskelli. Description: Free choice experiment: Eucalyptus camaldulensis saplings with monoterpene disks exposed to Ophelimus maskelli gall wasps. It is filed as in vivo. Conditions: for Eucalyptus camaldulensis resistance to Ophelimus maskelli infection / Ophelimus maskelli oviposition / number of infected leaves compared to control / number of galls per leaf compared to control: free choice, in words; for Ophelimus maskelli oviposition: compared to controls; for number of infected leaves compared to control: eucalyptol vs mineral oil, geraniol and citronellal vs mineral oil and eucalyptol controls; for number of galls per leaf compared to control: vs mineral oil and eucalyptol controls. The procedure: Preparation of monoterpene disks—100 μl of pure monoterpene solutions of geraniol, citronellal, eucalyptol (also known as 1,8-cineole, 1,8-epoxy-p-menthane) or mineral oil (Sigma-Aldrich Cat. Nos. G9698, 27470, C80601 or M5904, respectively) were each mixed with 5 ml of Vaseline. The mixed solutions were then spread using a spatula onto 20 mm in diameter filter paper disks (Whatman 3 mm cellulose chromatography papers, Sigma-Aldrich Cat. No. Z742422).
Free choice experiments—The free-choice experiments, were gall wasps were free to choose which plant to infest in a given cage, were carried out with Ophelimus maskelli gall wasp in three net cages of 80 cm×100 cm×150 cm in a greenhouse (28 ±2° C.) as described in Bleeker et al. [Plant Physiol. (2009) 151(2): 925-935], with the following modifications. Four Eucalyptus camaldulensis 3 months old saplings were placed randomly in each cage and 10 disks with either geraniol, citronellal, eucalyptol (1,8-Cineole, used as control) or mineral oil (used as control) were attached by metal wires to the branches of each sapling (10 branches for each sapling) (see FIG. 2) so that each sapling had 10 disks attached with one of the treatments. Next, 500 Ophelimus maskelli female adult wasps were released in the middle of each net cage. One week later the disks were removed from the branches of the saplings, the saplings were taken out of the cage and thereafter the Eucalyptus saplings were transferred to an insect free net house, an outdoor perimeter surrounded by a 50 mesh insect proof net. The plants were maintained in the net house for 6 weeks after inoculation. At the end of the six week period, infection levels were evaluated by counting the number of galls developed on the treated saplings.

Setting [1] is: average of 3 cages, leaves with 1-10 galls per leaf.
Where [2] appears, read: average of 3 cages, leaves with 10-50 galls per leaf.
Setting [3] is: average of 3 cages, leaves with 50-100 galls per leaf.
Setting [4] is: cage 1, leaves with 1-10 galls per leaf, 6 weeks after inoculation.
Setting [5] is: cage 1, leaves with 10-50 galls per leaf, 6 weeks after inoculation.
Where [6] appears, read: cage 1, leaves with 50-100 galls per leaf, 6 weeks after inoculation.
The mark [7] stands for this setting: cage 1, total, 6 weeks after inoculation.
Setting [8] is: cage 2, leaves with 1-10 galls per leaf, 6 weeks after inoculation.
Where [9] appears, read: cage 2, leaves with 10-50 galls per leaf, 6 weeks after inoculation.
Where [10] appears, read: cage 2, leaves with 50-100 galls per leaf, 6 weeks after inoculation.
[11] abbreviates: cage 2, total, 6 weeks after inoculation.
The mark [12] stands for this setting: cage 3, leaves with 1-10 galls per leaf, 6 weeks after inoculation.
[13] abbreviates: cage 3, leaves with 10-50 galls per leaf, 6 weeks after inoculation.
Where [14] appears, read: cage 3, leaves with 50-100 galls per leaf, 6 weeks after inoculation.
[15] abbreviates: cage 3, total, 6 weeks after inoculation.

On to `CC(C)=CCCC(C)CC=O` (stereo not shown) [citronellal, 3,7-dimethyloct-6-en-1-al], for which the “Eucalyptus camaldulensis resistance to Ophelimus maskelli infection” value was “significantly increased”, the Ophelimus maskelli oviposition entry is given as “significantly decreased”, the “number of infected leaves compared to control” value is given as “reduced number of infected leaves” and the “number of galls per leaf compared to control” value is “reduced number of galls per leaf”. In addition, the “Number of infected leaves” value under setting [1] turned out to be 1. Under setting [2], the “Number of infected leaves” value is given as 3. Moreover, the “Number of infected leaves” value under setting [3] worked out at 0. For the same compound, the “Number of infected leaves” value (average of 3 cages, total) was determined as 4. In addition, the “Number of infected leaves” value under setting [4] is listed as 1. In addition, under setting [5], the “Number of infected leaves” value turned out to be 4. The “Number of infected leaves” value under setting [6] is 0. Moreover, the “Number of infected leaves” value under setting [7] came to 5. The “Number of infected leaves” value under setting [8] is recorded as 1. Further, the “Number of infected leaves” value under setting [9] is listed as 2. In addition, under setting [10], the “Number of infected leaves” value was 0. For the same compound, the “Number of infected leaves” value under setting [11] worked out at 3. The “Number of infected leaves” value under setting [12] is 1. In addition, the “Number of infected leaves” value under setting [13] turned out to be 3. In addition, under setting [14], the “Number of infected leaves” value was found to be 0. In addition, the “Number of infected leaves” value under setting [15] was 4.

`CC12CCC(CC1)C(C)(C)O2` [eucalyptol, 1,8-cineole, reference compound]: the Ophelimus maskelli oviposition result is listed as “did not have a negative effect” and the “number of infected leaves compared to control” value was “slight increase”. For the same compound, the “Number of infected leaves” value under setting [1] amounted to 5.333. Moreover, the “Number of infected leaves” value under setting [2] stood at 10. For the same compound, the “Number of infected leaves” value under setting [3] is listed as 6. Besides, the “Number of infected leaves” value (average of 3 cages, total) is recorded as 21.33. For the same compound, the “Number of infected leaves” value under setting [4] is on record as 4. Besides, the “Number of infected leaves” value under setting [5] is on record as 14. Moreover, the “Number of infected leaves” value under setting [6] is on record as 6. The “Number of infected leaves” value under setting [7] turned out to be 24. In addition, the “Number of infected leaves” value under setting [8] was 5. Further, the “Number of infected leaves” value under setting [9] stood at 6. In addition, the “Number of infected leaves” value under setting [10] amounted to 6. Moreover, the “Number of infected leaves” value under setting [11] is listed as 17. Besides, under setting [12], the “Number of infected leaves” value is 7. Also, the “Number of infected leaves” value under setting [13] was 10. Also, the “Number of infected leaves” value under setting [14] is given as 6. Also, under setting [15], the “Number of infected leaves” value is 23.

Consider `CC(C)=CCC/C(C)=C/CO` [geraniol, (trans)-3,7-Dimethyl-2,6-octadien-1-ol], for which the “Eucalyptus camaldulensis resistance to Ophelimus maskelli infection” value is listed as “significantly increased”, the Ophelimus maskelli oviposition entry is recorded as “significantly decreased”, the “number of infected leaves compared to control” value is reported as “reduced number of infected leaves” and the “number of galls per leaf compared to control” value is given as “reduced number of galls per leaf”. Moreover, the “Number of infected leaves” value under setting [1] turned out to be 4. In addition, the “Number of infected leaves” value under setting [2] is 2. For the same compound, the “Number of infected leaves” value under setting [3] is given as 1. Further, where the note is “average of 3 cages, total”, the “Number of infected leaves” value stood at 7. Besides, the “Number of infected leaves” value under setting [4] came to 4. Also, the “Number of infected leaves” value under setting [5] is on record as 3. The “Number of infected leaves” value under setting [6] is 1. Besides, the “Number of infected leaves” value under setting [7] amounted to 8. Besides, the “Number of infected leaves” value under setting [8] is recorded as 4. Besides, under setting [9], the “Number of infected leaves” value is 2. For the same compound, the “Number of infected leaves” value under setting [10] was found to be 1. Besides, the “Number of infected leaves” value under setting [11] came out at 7. Moreover, the “Number of infected leaves” value under setting [12] is reported as 4. Also, the “Number of infected leaves” value under setting [13] was 1. The “Number of infected leaves” value under setting [14] was found to be 1. Under setting [15], the “Number of infected leaves” value was determined as 6.
